According to article PMC12053642, “Oral PRI-002 treatment in patients with MCI or mild AD: a randomized, double-blind phase 1b trial” (Nature Communications, 2025):
Values joined by “and” are separate entries in the source; they are usually repeats but may differ in a detail not shown here. Equal entries are not always repeated. Square brackets hold non-standard residues; d marks the D form. Peptide text beside a SMILES is read from it.

What was measured:
[1] = system: patients with MCI or mild dementia due to AD; assay: Other tests of the CERAD+ battery (TMT-A, TMT-B, figure drawing, figure recall, clock, WMS delayed recall); format: in vivo, human; parameters: Fig Recall (Figure Recall test), mean / Clock (Clock drawing test), mean / WMS delayed recall (Wechsler Memory Scale), mean / Fig Draw (Figure Drawing test), mean / Fig Recall / Clock / WMS delayed recall / Fig Draw: scale not given here; TMT-B (Trail Making Test B), mean / TMT-A / TMT-B: unit not given here; conditions: for Clock (Clock drawing test), mean / Fig Draw (Figure Drawing test), mean / Fig Recall (Figure Recall test), mean / TMT-A (Trail Making Test A), mean / TMT-B (Trail Making Test B), mean / WMS delayed recall (Wechsler Memory Scale), mean: 300 mg q.d. oral 28 d; for Clock / Fig Draw / Fig Recall / TMT-A / TMT-B / WMS delayed recall: individual patient values, PRI-002 group
Description: (§1) The effect of PRI-002 on cognition and function was tested by the CERAD+ battery and CDR-SB at baseline, Day 28, and Day 56, exploratory endpoints included the change of biomarkers (p-tau, t-tau, Aβ 1-40, Aβ 1-42 and Aβ oligomers) in CSF, blood plasma; change in CERAD+ test battery and CDR-SB scores.

[2] = system: patients with MCI or mild dementia due to AD; assay: Safety laboratory (hematology, clinical chemistry, hematoserology); format: in vivo, human; conditions: 300 mg q.d. oral 28 d
Description: All safety parameters and laboratory values (urinalysis, complete blood count (CBC), Quick, partial thromboplastin time (PTT), creatinine, […] (CK), […] (CRP), alanine aminotransaminase (ALT), aspartate aminotransferase (AST)) as well as ECG, EEG, MRI, and vital signs were analyzed in a descriptive manner according to their scales (frequencies, means). In order to compare a variable between both groups (placebo vs PRI-002) at one time point, a parameter free Wilcoxon rank sum test was used. As described in the statistical analysis plan, linear mixed models with random effect were used for the comparison of longitudinal effects between both groups (placebo vs PRI-002). ANOVA was also applied to assess longitudinal effects. Since the results are similar to the linear mixed models, results are presented using linear mixed models. A 95% confidence interval was used to check whether the parameters are within their normal ranges. The p value (p < 0.05) for the word list test was not corrected for multiplicity. All statistical data analysis was performed with the certified software Statistical Analysis System (SAS) by MicroDiscovery GmbH (Berlin, Germany).

[3] = system: patients with MCI or mild dementia due to AD; assay: Vital signs, physical examination, ECG and EEG; format: in vivo, human; conditions: 300 mg q.d. oral 28 d
Description: For safety assessment during baseline, at Day 14, 28, and 56, laboratory parameters and vital signs were measured, a physical exam was performed, and ECGs were recorded per protocol. A safety MRI was performed at screening, a second one within 3 days after day 28 and a third one at Day 56. During baseline and at day 28, EEG measurements were performed. In addition, nature, frequency, severity, and timing of AEs and SAEs were recorded at day 14, 28, and 56. Standardized AE reports were provided and analysed by the Data Safety and Monitoring Board (DSMB).

[4] = system: patients with MCI or mild dementia due to AD; assay: Clinical Dementia Rating Sum of Boxes (CDR-SB); format: in vivo, human; conditions: 300 mg q.d. oral 28 d
Description: as §1

[5] = system: patients with MCI or mild dementia due to AD; assay: CERAD word list learning and recall; format: in vivo, human; parameters: key to WL Recall (Word list recall test), Mean / WL Recall: words recalled after delay, out of the 10-word list; key to WL learn (CERAD Word list learning), Mean / WL learn: words recalled summed over 3 trials of a 10-word list; conditions: for WL Recall / WL learn: individual patient values, PRI-002 group; for WL learn, individual patients: one line per patient
Description: The CERAD Word Learning Test is a part of the CERAD cognitive test battery and assesses memory function, particularly for ADe and other dementias[34],[35]. It includes three parts: immediate recall, delayed recall, and recognition. During the test administration, a list of 10 words is read aloud three times, with the participant recalling as many as possible after each trial (immediate recall). After a delay of 5–10 min, they attempt to recall the words again (delayed recall), followed by a recognition task where they identify original words from a mixed list (recognition). The scores from the CERAD Word Learning Test are interpreted using normative data, which consider the participant’s age, gender, and education level. Normal range scores are considered between the 16th and 84th percentiles (z-score -1 to +1). For MCI scores between the 2nd and 15th percentiles (z-score -1 to -2) are expected. For significant cognitive impairment scores below the 2nd percentile (z-score < -2) are considered.

Aβ 1-40, Aβ 1-42 = assay: CSF Aβ 1-42 and ratio Aβ42/40, Lumipulse immunoassay; format: in vivo, human; conditions: Day 28, one line per patient, 300 mg q.d. oral 28 d
Description: as §1

[6] = Day 1 of the MAD study; dose 320 mg/person; cited from earlier work
Description: On the two test days (Day 1 and Day 28), plasma levels were highly variable (Fig. 1). Coefficient of variations (CVs) were clearly above 100% at 0.5 h after the first treatment and at the pre-treatment time of Day 28 (Supplementary Table 8). […] The high variability is due to a non-Gaussian data distribution. Mean maximum plasma levels on Day 1 (Day 28) of 4.46 ± 3.71 ng/ml (12.6 ...

[7] = EoT (Day 28), geometric mean ± SD
[8] = FU EoS (Day 56), geometric mean ± SD

Compound: CC(C)C[C@@H](NC(=O)[C@H](NC(=O)[C@H]1CCCN1)[C@H](C)O)C(=O)N[C@H](Cc1c[nH]cn1)C(=O)N[C@@H](C(=O)N[C@H](Cc1c[nH]cn1)C(=O)N[C@H](CC(N)=O)C(=O)N[C@H](CCCNC(=N)N)C(=O)N[C@H](CCCNC(=N)N)C(=O)N[C@H](CCCNC(=N)N)C(=O)N[C@H](CCCNC(=N)N)C(=O)N[C@H](CCCNC(=N)N)C(N)=O)[C@H](C)O [PRI-002] (H-[dP][dT][dL][dH][dT][dH][dN][dR][dR][dR][dR][dR]-NH2; N-terminus and C-terminus assumed)
- Clock (Clock drawing test), mean ([1]; Day 1 (baseline), N=9): 1.7
- Clock ([1]; Day 1): 1.0 and 2.0 and 3.0
- Fig Draw ([1]; Day 1): 11 and 9 and 10 and 8
- Fig Recall ([1]; Day 1): 2 and 4 and 7 and 0 and 6 and 5 and 11 and 8
- TMT-A ([1]; Day 1): 98 and 74 and 60 and 47 and 28 and 43 and 103 and 33 and 58
- TMT-B ([1]; Day 1): 240 and 283 and 160 and 205 and 100 and 77 and 141 and 80 and 132
- WMS delayed recall ([1]; Day 1): 5 and 0 and 4 and 14 and 30 and 7 and 28 and 2
- Clock (Clock drawing test), mean ([1]; Day 28, N=8): 1.6
- Fig Draw (Figure Drawing test), mean ([1]; Day 28, N=8): 10.8
- Fig Recall (Figure Recall test), mean ([1]; Day 28, N=8): 6.9
- TMT-A (Trail Making Test A), mean ([1]; Day 28, N=8): 58.4
- TMT-B (Trail Making Test B), mean ([1]; Day 28, N=8): 137.5
- WMS delayed recall (Wechsler Memory Scale), mean ([1]; Day 28, N=8): 12.8
- Clock ([1]; Day 28): 4.0 and 2.0 and 1.0
- Fig Draw ([1]; Day 28): 11 and 9
- Fig Recall ([1]; Day 28): 0 and 6 and 5 and 11 and 9 and 4
- TMT-A ([1]; Day 28): 98 and 51 and 60 and 36 and 50 and 86 and 26
- TMT-B ([1]; Day 28): 270 and 115 and 127 and 87 and 80 and 155 and 62 and 204
- WMS delayed recall ([1]; Day 28): 2 and 0 and 10 and 9 and 34 and 14 and 27 and 6
- Fig Draw (Figure Drawing test), mean ([1]; Day 56, N=9): 10.9
- Fig Recall (Figure Recall test), mean ([1]; Day 56, N=9): 7.4
- TMT-A (Trail Making Test A), mean ([1]; Day 56, N=9): 53.9
- TMT-B (Trail Making Test B), mean ([1]; Day 56, N=9): 121.9
- WMS delayed recall (Wechsler Memory Scale), mean ([1]; Day 56, N=9): 15.0
- Clock ([1]; Day 56): 4.0 and 2.0 and 1.0 and 3.0
- Fig Draw ([1]; Day 56): 11 and 10
- Fig Recall ([1]; Day 56): 0 and 4 and 7 and 2 and 10 and 11
- TMT-A ([1]; Day 56): 70 and 79 and 45 and 88 and 28 and 40 and 51 and 30 and 54
- TMT-B ([1]; Day 56): 238 and 116 and 128 and 182 and 72 and 86 and 119 and 64 and 92
- WMS delayed recall ([1]; Day 56): 3 and 0 and 15 and 30 and 23 and 39 and 10
- Hematocrit ([2]; Baseline (Day 1), geometric mean ± SD): 0.38±0.03 l/l
- Erythrocyte ([2]; Day 14, geometric mean ± SD): 4.14 ± 0.42 pL⁻¹
- Leucocyte ([2]; Day 14, geometric mean ± SD): 5.95 ± 1.71 nL⁻¹
- PTT ([2]; Day 14, geometric mean ± SD): 31.60 ± 3.95 s
- Quick value (prothrombin time) ([2]; Day 14, geometric mean ± SD): 96.99±21.30%
- Erythrocyte [2, 7]: 4.06 ± 0.44 pL⁻¹
- Leucocyte [2, 7]: 5.86 ± 1.81 nL⁻¹
- PTT [2, 7]: 29.71 ± 1.94 s
- Quick value (prothrombin time) [2, 7]: 101.13±9.55%
- Erythrocyte [2, 8]: 4.10 ± 0.50 pL⁻¹
- Hematocrit [2, 8]: 0.40±0.03 l/l
- Leucocyte [2, 8]: 5.66 ± 1.41 nL⁻¹
- PTT [2, 8]: 30.96 ± 3.11 s
- Quick value (prothrombin time) [2, 8]: 98.71±21.08%
- Hematocrit ([2]; Screening (Day 0), geometric mean ± SD): 0.39±0.03 l/l
- changes in laboratory parameters (clinical chemistry, blood count, hematoserology) ([2]; screening to midterm visit to end of treatment): no clinically relevant changes
- changes on vital signs, general physical examination, ECG and EEG [3]: no significant changes
- CDR-SB, Mean ([4]; Day 28, n=8): 1.75
- CDR-SB, Mean ([4]; Day 56, n=9): 2.39
- WL Recall ([5]; Day 1): 3 and 4 and 1 and 5 and 7 and 9
- WL learn ([5]; Day 1): 14 and 10 and 13 and 11 and 20 and 16 and 25
- WL learn (CERAD Word list learning), Mean ([5]; Day 28 (end of treatment), n=8, 300 mg q.d. oral 28 d): 17.3 and 17.25
- WL Recall ([5]; Day 28): 4 and 5 and 0 and 6 and 10 and 7
- WL learn ([5]; Day 28): 15 and 14 and 12 and 16 and 25 and 17
- WL Recall (Word list recall test), Mean ([5]; Day 28, n=8, 300 mg q.d. oral 28 d): 6.0
- WL learn, individual patients ([5]; Day 28, 300 mg q.d. oral 28 d): 16 and 25 (2×) and 17 and 14 (2×) and 15 and 12
- WL learn (CERAD Word list learning), Mean ([5]; Day 56 (End of Study), n=9, PV 0.036 vs placebo (Wilcoxon), 300 mg q.d. oral 28 d): 19.3 and 19.33
- performance in the CERAD word list versus placebo ([5]; Day 56, P ≤ 0.05, not corrected for multiplicity, 300 mg q.d. oral 28 d): significantly better
- WL Recall ([5]; Day 56): 5 and 4 and 3 and 8 and 10
- WL learn ([5]; Day 56): 18 and 16 and 17 and 24 and 30
- WL Recall (Word list recall test), Mean ([5]; Day 56, n=9, 300 mg q.d. oral 28 d): 5.4
- WL learn, individual patients ([5]; Day 56, 300 mg q.d. oral 28 d): 18 (3×) and 24 and 30 and 17 (2×) and 16 (2×)
- verum treated patients with improvement of memory function in the CERAD word list test ([5]; Day 56 versus baseline, of 9 patients, 300 mg q.d. oral 28 d): 9
- Cohen's d effect size, WL learn, PRI-002 vs placebo ([5]; day 56, pooled SD, 300 mg q.d. oral 28 d): 0.94
- Difference WL learn Baseline (day 1) to EoS (day 56), individual patients ([5]; one line per patient 1-9, 300 mg q.d. oral 28 d): 7 and 4 (2×) and 2 and 5 and 1 and 6 and 3 (2×)
- Aβ42, individual patients (Aβ 1-40, Aβ 1-42): 350 pg/mL and 512 pg/mL and 223 pg/mL and 748 pg/mL and 456 pg/mL and 595 pg/mL and 670 pg/mL and 791 pg/mL and 820 pg/mL
- Ratio Aβ42/40, individual patients (Aβ 1-40, Aβ 1-42): 0.033 and 0.050 and 0.026 and 0.042 and 0.036 and 0.045 and 0.059 and 0.056 and 0.047
- AUC0-4 hour [6]: 33.7 ng·h/mL
- partial AUC up to 4 h as percentage of total AUC [6]: 44.2%
